From patent US5609875A, “Skin whitening composition” (Fischer Pharmaceuticals Ltd., priority 1994, dated 1997)

Tested on: tyrosinase
Assay: In vitro tyrosinase inhibitory activity, colorimeter comparison at 475 nm
Format: biochemical
From the text: Test in vitro on the effect of glycolic acid and glycyrrhiza dry extract on tyrosinase inhibitory activity has been carried out based on the Methodology of Maruzene Pharmaceuticals. The anti-tyrosinase activity was investigated by colorimeter comparison at 475 nm and calculated as percentage of the inhibitory activities. (Attached are the results).

O=C(O)CO [Glycolic acid]
% Tyrosinase Inhibition Test 1 (Glycolic acid 0.42 mg/5 ml): 4.86% | % Tyrosinase Inhibition Test 2 (Glycolic acid 0.42 mg/5 ml): 9.12% | % Tyrosinase Inhibition Test 1 (Glycolic acid 0.805 mg/5 ml): 5.64% | % Tyrosinase Inhibition Test 2 (Glycolic acid 0.805 mg/5 ml): 16.11% | % Tyrosinase Inhibition Test 1 (Glycolic acid 1.61 mg/5 ml): 7.60% | % Tyrosinase Inhibition Test 2 (Glycolic acid 1.61 mg/5 ml): 21.32% | % Tyrosinase Inhibition Test 1 (Glycolic acid 7.21 mg/5 ml): 10.74% | % Tyrosinase Inhibition Test 2 (Glycolic acid 7.21 mg/5 ml): 27.81%
